# Laboratory results reported in US20240099989A1, “AGENT FOR PREVENTING OR IMPROVING PERIPHERAL NEUROPATHY” (KINKI UNIVERSITY, priority 2021, published 2024).
# “Also recorded” adds a separate entry of the source.
# Experiments:
# [1] = system: Peripheral Neuropathy in a Mouse Caused by Oxaliplatin; assay: Cold plate test (10° C.), peripheral neuropathy caused by oxaliplatin; format: in vivo, Balb/c mice
# Procedure: The preventive action of xylitol on hyperesthesia that occurs when an anticancer drug, oxaliplatin, was administered was examined. […] Xylitol was orally administered to a mouse simultaneously with the administration of oxaliplatin, and the following tests (cold plate test and von Frey test) were performed. Oxaliplatin is an anticancer drug classified as a platinum-containing drug. In all of the examples described below, a dosage (administered amount) (mg/kg) refers to the weight of the administered substance per kg body weight of the mouse.
# Six to seven-week-old female Balb/c mice were used for the tests. All the mice were acclimated for seven days after arrival. Then, the mice were grouped into the following four groups: a control group, a group receiving oxaliplatin, and two groups receiving oxaliplatin and two different doses of xylitol (groups receiving oxaliplatin+xylitol). Each group consisted of nine mice.
# (§1) On Day 8 of acclimation, the mice in the group receiving oxaliplatin and the groups receiving oxaliplatin+xylitol were intraperitoneally administered with oxaliplatin at a dose of 6 mg/kg. This day was designated as Day 0 of administration. Thereafter, these mice were intraperitoneally administered with oxaliplatin at a daily dose of 6 mg/kg on Day 7 and Day 14.
# The mice in a first group receiving oxaliplatin and xylitol were orally administered with xylitol at a dose of 1 mg/kg daily from Day 0. The mice in a second group receiving oxaliplatin and xylitol were orally administered with xylitol at a dose of 5 mg/kg daily from Day 0.
# (§2) A cold plate test was performed to examine the effect of xylitol on paresthesia that is caused by a low temperature stimulus. The mice in the four groups described in (1) of the present example (Example 1) were placed on a cold plate set at 10° C., and withdrawal response time (latent time) was measured. It is presumed that a shorter latent time reflects a greater degree of shunning the low temperature stimulus by the cold plate.
# Six to seven-week-old female Balb/c mice were used for the tests as with Example 1. All the mice were acclimated for seven days after arrival. Then, the mice were grouped into the following five groups: a control group, a group receiving only oxaliplatin, and three groups receiving oxaliplatin and three different doses of xylitol. Each group consisted of seven mice.
# On Day 8 of acclimation, the mice in the groups other than the control group were intraperitoneally administered with oxaliplatin at a dose of 6 mg/kg. This day was designated as the first day of the administration (Day 0). Thereafter, these mice were intraperitoneally administered with oxaliplatin at the same dose on Day 7 and Day 14 for a total of 3 doses.
# The mice in a first group receiving oxaliplatin+xylitol were orally administered with xylitol at a dose of 5 mg/kg daily from Day 6 of administration. The mice in a second group receiving oxaliplatin+xylitol were orally administered with xylitol at a dose of 25 mg/kg daily from Day 6 of administration. The mice in a third group receiving oxaliplatin+xylitol were orally administered with xylitol at a dose of 100 mg/kg daily from Day 6 of administration. In this context, “Day 6 of administration” means that the number of days after administration is 6. The same applies hereinafter.
# as §2, with “A” for “A cold plate”, “performed on the mice in the five groups described in (1) of the present example (Example 2)” for “performed”, “respective” for “the four”, “groups” for “groups described in (1) of the present example (Example 1)”
# Six to seven-week-old female Balb/c mice were used for the tests as with Example 1. All the mice were acclimated for seven days after arrival. […]
# [2] = system: Peripheral Neuropathy in a Mouse Caused by Bortezomib; format: in vivo, Balb/c mice; settings: 1 mg/kg bortezomib + 100 mg/kg orally daily from Day 6 (therapy); from Day 12 onwards
# Source text: (§3) Six to seven-week-old female Balb/c mice were used for the tests. All the mice were acclimated for seven days after arrival. Then, the mice were grouped into the following four groups: a control group, a group receiving bortezomib, a group receiving xylitol, and a group receiving bortezomib and xylitol (a group receiving bortezomib+xylitol). Each group consisted of five mice.
# as §1, with “bortezomib” for “oxaliplatin”, “group” for “groups”, “bortezomib+xylitol” for “oxaliplatin+xylitol”, “1” for “6”
# The mice in the group receiving xylitol and the group receiving bortezomib+xylitol were orally administered with xylitol at a dose of 5 mg/kg daily from Day 0.
# The mice in the four groups described in (10) of the present example (Example 1) were placed in a cage, and the avoidance response frequency (score) was measured by pressing a filament with a bending force of 0.16 g against the back of the hind paw.
# as §3, with “tests as with Example 1.” for “tests.”, “mice. […]” for “mice.”
# For the mice in the four groups described in (12) of the present example (Example 2), the avoidance response frequency (score) was measured by pressing a filament with a bending force of 0.16 g against the back of the hind paw. […]
# The mice in the four groups described in (10) of the present example (Example 3) were placed in a cage, and the avoidance response frequency (score) was measured by pressing a filament with a bending force of 0.16 g against the back of the hind paw. […]
# [3] = 6 mg/kg oxaliplatin + 5 mg/kg test substance orally daily from Day 0 (prevention)
# [4] = 6 mg/kg oxaliplatin + 100 mg/kg test substance orally daily from Day 6 (therapy), time course after Day 6
Compound,"withdrawal response time (latent time) [1, 3]","withdrawal response time (latent time) [1, 4]",avoidance response score [2],withdrawal response time (latent time) ([1]; 6 mg/kg oxaliplatin + 1 mg/kg test substance orally daily from Day 0 (prevention)),"withdrawal response time (latent time) ([1]; 6 mg/kg oxaliplatin + 5 mg/kg orally daily from Day 6, on Day 10, vs group receiving 6 mg/kg oxaliplatin)","withdrawal response time (latent time) ([1]; 6 mg/kg oxaliplatin + 5 mg/kg orally daily from Day 6, on Day 14 and Day 17, vs group receiving 6 mg/kg oxaliplatin)","withdrawal response time (latent time) ([1]; 6 mg/kg oxaliplatin + 5 mg/kg orally daily from Day 6, on Day 21, vs group receiving 6 mg/kg oxaliplatin)","withdrawal response time (latent time) ([1]; 6 mg/kg oxaliplatin + 5 mg/kg test substance orally daily from Day 6 (therapy), time course after Day 6)","withdrawal response time (latent time) ([1]; 6 mg/kg oxaliplatin + 25 mg/kg orally daily from Day 6, on Day 10, vs group receiving 6 mg/kg oxaliplatin)","withdrawal response time (latent time) ([1]; 6 mg/kg oxaliplatin + 25 mg/kg test substance orally daily from Day 6 (therapy), time course after Day 6)","withdrawal response time (latent time) ([1]; 6 mg/kg oxaliplatin + 100 mg/kg orally daily from Day 6, on Day 10, vs group receiving 6 mg/kg oxaliplatin)"
OC[C@@H](O)[C@H](O)CO [D-threitol],approximately similar to that of the control group,tended to become longer from Day 6 onwards; also recorded: significantly longer withdrawal response time,maintained a score clearly lower than that of the group receiving bortezomib,,,,,,,,
OC[C@H](O)[C@H](O)[C@H](O)[C@@H](O)CO [L-talitol],almost the same data; also recorded: approximately similar to that of the control group,tended to become longer from Day 9 onwards; also recorded: significantly longer withdrawal response time,maintained a score clearly lower than that of the group receiving bortezomib,,,,,,,,
OC[C@@H](O)[C@H](O)[C@@H](O)CO [xylitol],approximately similar to that of the control group,,maintained a score clearly lower than that of the group receiving bortezomib,approximately similar to that of the control group,significantly longer withdrawal response time,no significant difference,significantly longer withdrawal response time,tended to become longer from Day 6 onwards; also recorded: significantly longer withdrawal response time,significantly longer withdrawal response time,tended to become longer from Day 6 onwards; also recorded: increase in the withdrawal response time; also recorded: significantly longer withdrawal response time,significantly longer withdrawal response time
